Results from patent US6498251B1, “Tetrahydrobenzindole derivatives” (Meiji Seika Kaisha, Ltd., priority 1997, dated 2002).

Columns and labels:
5-HT2 receptor = biological target: T1, 5-HT2 receptor (Rattus norvegicus, UniProt P14842); assay: Binding affinity for 5-HT2 receptor ([3H]ketanserin binding, rat cerebral cortex P2 fraction); conditions: [3H]ketanserin 1 nM, 37° C. 15 minutes, Ki calculated from IC50
T1 construct: Rat cerebral cortex was homogenized; from tissue; host or cells: rat cerebral cortex, P2 membrane fraction
Experimental: Test Example 2 Binding Affinity for 5-HT2 Rector
Rat cerebral cortex was homogenized in 10 volumes of 0.32 M sucrose solution and centrifuged for 10 minutes at 900×g, and the resulting supernatant fluid was again centrifuged for 20 minutes at 11,500×g. The thus obtained precipitate was re-suspended in 50 mM Tris-HCl (pH 7.4) buffer and centrifuged for 20 minutes at 39,900×g, and the thus obtained precipitate was used as P2 fraction.
The P2 fraction was incubated at 37° C. for 15 minutes in 50 mM Tris-HCl (pH 7.4) buffer containing 1 nM of [^3H]ketanserin and each of the compounds of the invention and then filtered after the reaction using Whatman GF/B glass filter. The radioactivity on the filter was measured using a liquid scintillation counter. Non-specific binding was determined by 10 μM ketanserin, and the specific binding was calculated based on the difference therefrom. The IC50 value was calculated from the inhibition curve of each compound, and the binding inhibition constant Ki was calculated from the value.

[1] = biological target: T2, human serotonin 5-HT7 receptor subtype (Homo sapiens, UniProt P34969); assay: Binding affinity for 5-HT7 receptor ([3H]-5CT binding test); conditions: for Ki: [3H]-5CT 1 nM, membrane fraction of cells expressing human 5-HT7, 37° C. 30 minutes, Ki calculated from IC50; for 5-HT2/5-HT7: ratio of Ki of 5-HT2 to Ki of 5-HT7 (selectivity)
T2 construct: expressed in transfected cells
Experimental: Test Example 1 Binding Affinity for 5-HT7 Rector
Cultured cells capable of expressing human serotonin 5-HT7 receptor subtype were harvested in an assay buffer solution (50 mM Tris-HCl containing 10 mM MgCl2and 0.5 mM EDTA, pH 7.4) and homogenized with a Potter tripe homogenizer, and then the membrane fraction was centrifuged for 20 minutes at 39,000 g and at 4° C. The thus obtained pellet was re-suspended in 1 ml, per cells per one culture dish of 10 cm in diameter, of the assay buffer solution and homogenized again.
The binding test was carried out using 1 nM in final concentration of [^3H]-5CT (carboxamide tryptamine) and from 1 to 1,000 nM of each substance to be tested (the compound (1) of the invention among Synthesis Examples), and adjusting the final assay volume to 300 μl by adding 100 μl of the membrane fraction suspension and then incubating the reaction system at 37° C. for 30 minutes. The incubation was terminated by quickly filtering on a GF/B filter, subsequently carrying out washing with 6 ml of cold 50 mM Tris-HCl (pH 7.4). The radioactivity was measured using a liquid scintillation counter. Non-specific binding was determined by 10 μM metergoline, and the specific binding was calculated based on the difference therefrom. The IC50 value was calculated from the inhibition curve of each compound, and the binding inhibition constant Ki was calculated from the value.

T2 sequence (P34969 whole entry): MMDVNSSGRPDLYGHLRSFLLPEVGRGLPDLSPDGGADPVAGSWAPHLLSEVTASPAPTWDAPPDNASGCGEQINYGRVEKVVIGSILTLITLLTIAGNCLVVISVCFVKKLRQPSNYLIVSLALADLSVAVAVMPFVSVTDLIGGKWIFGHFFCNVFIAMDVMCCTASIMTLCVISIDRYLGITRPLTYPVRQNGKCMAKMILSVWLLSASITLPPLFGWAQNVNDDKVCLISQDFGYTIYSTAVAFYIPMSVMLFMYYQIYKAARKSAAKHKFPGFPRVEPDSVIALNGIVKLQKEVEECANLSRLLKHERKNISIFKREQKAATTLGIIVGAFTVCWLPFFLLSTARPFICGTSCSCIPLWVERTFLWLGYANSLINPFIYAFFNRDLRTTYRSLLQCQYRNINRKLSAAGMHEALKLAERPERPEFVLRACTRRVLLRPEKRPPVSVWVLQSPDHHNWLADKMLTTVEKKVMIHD
T1 sequence (P14842 whole entry): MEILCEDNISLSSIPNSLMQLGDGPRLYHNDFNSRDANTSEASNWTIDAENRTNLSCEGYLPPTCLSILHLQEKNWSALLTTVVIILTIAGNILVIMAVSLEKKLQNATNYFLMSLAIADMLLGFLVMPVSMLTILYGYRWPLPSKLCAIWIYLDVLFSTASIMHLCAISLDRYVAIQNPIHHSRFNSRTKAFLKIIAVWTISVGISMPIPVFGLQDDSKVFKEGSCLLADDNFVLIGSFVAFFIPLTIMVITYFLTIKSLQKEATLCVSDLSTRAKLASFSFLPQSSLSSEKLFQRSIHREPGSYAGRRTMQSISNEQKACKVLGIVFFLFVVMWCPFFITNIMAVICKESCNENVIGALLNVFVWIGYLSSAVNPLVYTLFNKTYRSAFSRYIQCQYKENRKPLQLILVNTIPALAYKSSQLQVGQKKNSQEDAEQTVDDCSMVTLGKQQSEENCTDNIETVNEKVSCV

| SMILES | Ki (5-HT2 receptor) | Ki [1] | 5-HT2/5-HT7 [1] |
| --- | --- | --- | --- |
| COC(=O)n1c2c(c3ccccc31)CCN(CCCCC13CCCc4cccc(c41)NC3=O)C2 (stereo not drawn) [Compd. of Syn. Ex. 17a, 2a-[4-(9-Methoxycarbonyl-2,3,4,9-tetrahydro-1H-pyrido[3,4-b]indol-2-yl)-butyl]-2a,3,4,5-tetrahydro-1H-benz[cd]indol-2-one] | 807 nM | 9 nM | 90 |
| O=C1Nc2cccc3c2C1(CCCCN1CCN(C2CCCc4cnccc42)CC1)CCC3 (stereo not drawn) [Compd. of Syn. Ex. 37d, 2a-(4-(4-(5,6,7,8-Tetrahydroisoquinolin-5-yl)-piperazin-1-yl)butyl)-2a,3,4,5-tetrahydro-1H-benz[d]indol-2-one] | 882 nM | 8.8 nM | 100 |
| CN1C(=O)C2(CCCCN3CCc4ccccc4C3)CCCc3cccc1c32 (stereo not drawn) [Compd. of Syn. Ex. 14c, 2a-(4-(1,2,3,4-Tetrahydroisoquinolin-2-yl)butyl)-1-methyl-2a,3,4,5-tetrahydro-1H-benz[cd]indol-2-one] | > 1000 nM | 1.9 nM | >530 |
| Cl.O=C1Nc2ccccc2N2CCN(CCCCC34CCCc5cccc(c53)NC4=O)CC12 (stereo not drawn) [Compd. of Syn. Ex. 13b, 2a-[4-(2,3,4,4a-Tetrahydro-1H-pyrazino[1,2-a]quinoxalin-5(6H)-one-3-yl)-butyl]-2a,3,4,5-tetrahydro-1H-benz[cd]indol-2-one Hydrochloride] | 385 nM | 8 nM | 48 |
| O=C1Nc2cccc3c2C1(CCCCN1CCN2c4ccccc4OCC2C1)CCC3 (stereo not drawn) [Compd. of Syn. Ex. 1b, 2a-[4-(1,2,3,4,4a,5-Hexahydropyrazino[2,1-c]-1,4-benzoxazin-3-yl)-butyl]-2a,3,4,5-tetrahydro-1H-benz[cd]indol-2-one] | 151 nM | 9 nM | 17 |
| O=C1Nc2cccc3c2C1(CCCCN1CCc2c([nH]c4ccccc24)C1)CCC3 (stereo not drawn) [Compd. of Syn. Ex. 1a, 2a-[4-(2,3,4,9-Tetrahydro-1H-pyrido[3,4-b]indol-2-yl)-butyl]-2a,3,4,5-tetrahydro-1H-benz[cd]indol-2-one] | 227 nM | 7 nM | 33 |
| O=C1Nc2cccc3c2C1(CCCCN1CCN(C2CCCc4ccccc42)CC1)CCC3 (stereo not drawn) [Compd. of Syn. Ex. 10d, 2a-(4-(4-(1,2,3,4-Tetrahydronaphthalen-1-yl)-piperazin-1-yl)butyl)-2a,3,4,5-tetrahydro-1H-benz[cd]indol-2-one] | > 1000 nM | 9.8 nM | >100 |
| O=C1Nc2cccc3c2C1(CCCCN1CCN2c4ccccc4[S+]([O-])CC2C1)CCC3 (stereo not drawn) [Compd. of Syn. Ex. 10b, 2a-[4-(1,2,3,4,4a,5-Hexahydro-6-oxo-6-λ^4-pyrazino[2,1-c]-1,4-benzthiazin-3-yl)-butyl]-2a,3,4,5-tetrahydro-1H-benz[cd]indol-2-one] | > 1000 nM | 7 nM | >143 |
| O=C1Nc2cccc3c2C1(CCCCN1CCc2sccc2C1)CCC3 (stereo not drawn) [Compd. of Syn. Ex. 17c, 2a-(4-(4,5,6,7-Tetrahydro-thieno[3,2-c]pyridin-5-yl)butyl)-2a,3,4,5-tetrahydro-1H-benz[cd]indol-2-one] | > 1000 nM | 0.9 nM | >1100 |
| CC(c1ccccc1)N1CCN(CCCCC23CCCc4cccc(c42)NC3=O)CC1 (stereo not drawn) [Compd. of Syn. Ex. 2e, 2a-(4-(4-(1-Phenyl-ethyl)-piperazin-1-yl)butyl)-2a,3,4,5-tetrahydro-1H-benz[cd]indol-2-one] | 456 nM | 30 nM | 15 |
| COCn1c2c(c3ccccc31)CCN(CCCCC13CCCc4cccc(c41)NC3=O)C2 (stereo not drawn) [Compd. of Syn. Ex. 21a, 2a-[4-(9-Methoxymethyl-2,3,4,9-tetrahydro-1H-pyrido[3,4-b]indol-2-yl)-butyl]-2a,3,4,5-tetrahydro-1H-benz[cd]indol-2-one] | 524 nM | 13 nM | 40 |
